Reference: patent US7749996B2, “Heterotricyclic metalloprotease inhibitors” (Alantos Pharmaceutical Holdings, Inc., priority 2006, dated 2010)

Legend:
Type in all cases: biochemical
[1] = target: T1, catalytic domain of MMP-13 enzyme (Homo sapiens, UniProt P45452); assay: Assay for determining MMP-13 inhibition (fluorescent substrate); conditions: Table 1, activity group
T1 construct: stock solution of catalytic domain of MMP-13 enzyme (produced by Alantos or commercially available from Invitek (Berlin), Cat.# 30100812); purchased Invitek (Berlin) 30100812
Method: (§1) The typical assay for MMP-13 activity is carried out in assay buffer comprised of 50 mM Tris, pH 7.5, 150 mM NaCl, 5 mM CaCl2 and 0.05% Brij-35. Different concentrations of tested compounds are prepared in assay buffer in 50 μL aliquots. […] The mixture of enzyme and compound in assay buffer is thoroughly mixed and incubated for 10 min at room temperature. […] The time-dependent increase in fluorescence is measured at the 320 nm excitation and 390 nm emission by automatic plate multireader. The IC50 values are calculated from the initial reaction rates.

[2] = target: T2, catalytic domain of MMP-3 enzyme (Homo sapiens, UniProt P08254); assay: Assay for determining MMP-3 inhibition (NFF-3 fluorescent substrate); conditions: Table 3, activity group
T2 construct: stock solution of the catalytic domain of MMP-3 enzyme (Biomol, Cat. No. SE-109); purchased Biomol SE-109
Method: as §1, with “MMP-3” for “MMP-13”, “MES,” for “Tris,”, “6.0, 10” for “7.5, 150 mM NaCl, 5”, “330” for “320”, “by an” for “by”

activated MMP-8 enzyme = target: T3, activated MMP-8 enzyme (Homo sapiens, UniProt P22894); assay: Assay for determining MMP-8 inhibition (fluorescent substrate); conditions: Table 2, activity group
T3 construct: purchased Calbiochem 444229
Method: as §1, with “MMP-8” for “MMP-13”, “37° C.” for “room temperature.”, “by an” for “by”, “multireader at 37° C.” for “multireader.”

T3 sequence (P22894 101-467): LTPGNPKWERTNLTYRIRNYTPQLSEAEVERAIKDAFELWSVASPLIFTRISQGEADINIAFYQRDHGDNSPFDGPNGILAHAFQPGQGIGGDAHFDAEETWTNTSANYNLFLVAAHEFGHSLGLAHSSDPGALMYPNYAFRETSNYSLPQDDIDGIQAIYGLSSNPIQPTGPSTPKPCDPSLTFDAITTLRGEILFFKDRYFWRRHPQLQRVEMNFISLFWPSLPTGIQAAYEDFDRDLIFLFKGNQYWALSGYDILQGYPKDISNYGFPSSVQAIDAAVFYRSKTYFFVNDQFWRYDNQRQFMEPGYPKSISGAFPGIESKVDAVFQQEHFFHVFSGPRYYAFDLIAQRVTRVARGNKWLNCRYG
T2 sequence (P08254 100-272 limits assumed): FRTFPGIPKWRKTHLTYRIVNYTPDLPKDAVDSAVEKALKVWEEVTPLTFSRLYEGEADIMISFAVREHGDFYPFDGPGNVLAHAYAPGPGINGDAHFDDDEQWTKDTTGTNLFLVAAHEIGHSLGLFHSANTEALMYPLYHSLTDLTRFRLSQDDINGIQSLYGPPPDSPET

Row | IC50 [1] [nM] | IC50 [2] [nM] | IC50 (activated MMP-8 enzyme) [nM] | SMILES
1 | < 100 | 250 to 20000 | < 250 | CC(=O)N1CCc2c(sc3nc(C(=O)NCc4ccc5c(c4)CN(c4c(N)c(=O)c4=O)CC5)[nH]c(=O)c23)C1 [2/95]
2 | < 100 | < 250 | < 250 | O=C1COc2ccc(CNC(=O)c3nc4sc5c(c4c(=O)[nH]3)CCS(=O)(=O)C5)cc2N1 [2/103]
3 | – | < 250 | < 250 | Nc1c(N2CCc3ccc(CNC(=O)c4nc5sc6c(c5c(=O)[nH]4)CCS(=O)(=O)C6)cc3C2)c(=O)c1=O [2/104]
4 | < 100 | 250 to 20000 | < 250 | COc1ccc2c(c1)CCc1sc3nc(C(=O)NCc4ccc5c(c4)NC(=O)CO5)[nH]c(=O)c3c1-2 [2/107]
5 | < 100 | 250 to 20000 | – | COc1ccc2c(c1)CCc1sc3nc(C(=O)NCc4ccc5c(c4)CN(c4c(N)c(=O)c4=O)CC5)[nH]c(=O)c3c1-2 [2/108]
6 | < 100 | 250 to 20000 | < 250 | CC1SCc2sc3nc(C(=O)NCc4ccc5c(c4)CN(c4c(N)c(=O)c4=O)CC5)[nH]c(=O)c3c21 (stereo not shown) [2/132]
7 | < 100 | 250 to 20000 | < 250 | CC(C)(C)OC(=O)N1CCc2sc3nc(C(=O)NCc4ccc5c(c4)NC(=O)CO5)[nH]c(=O)c3c2CC1 [2/171]
8 | < 100 | – | < 250 | CC(NC(=O)C1CCc2sc3nc(C(=O)NCc4ccc5c(c4)NC(=O)CO5)[nH]c(=O)c3c21)c1ccccc1 (stereo not shown) [2/175]
9 | < 100 | – | < 250 | Cc1cc(CNC(=O)C2CCc3sc4nc(C(=O)NCc5ccc6c(c5)NC(=O)CO6)[nH]c(=O)c4c32)ccc1F (stereo not shown) [2/176]
10 | < 100 | 250 to 20000 | < 250 | O=C1COc2ccc(CNC(=O)C3NC(=O)c4c(sc5c4CCCN(CC4CCCCO4)C5=O)N3)cc2N1 (stereo not shown) [2/188]
11 | < 100 | 250 to 20000 | – | CCOC(=O)C1CCc2sc3nc(C(=O)NCc4ccc5c(c4)NC(=O)CO5)[nH]c(=O)c3c2C1 (stereo not shown) [2/208]
12 | < 100 | 250 to 20000 | < 250 | CCOC(=O)C1CCc2sc3nc(C(=O)NCc4ccc5c(c4)CN(c4c(N)c(=O)c4=O)CC5)[nH]c(=O)c3c2C1 (stereo not shown) [2/209]
13 | < 100 | 250 to 20000 | – | CCOC(=O)C1Cc2sc3nc(C(=O)NCc4ccc5c(c4)NC(=O)CO5)[nH]c(=O)c3c2C1 (stereo not shown) [2/210]
14 | < 100 | 250 to 20000 | < 250 | O=C1COc2ccc(CNC(=O)c3nc4sc5c(c4c(=O)[nH]3)CCOCC5)cc2N1 [2/211]
15 | < 100 | – | < 250 | CC(C)(C)OC(=O)CNC(=O)C1CCc2sc3nc(C(=O)NCc4ccc5c(c4)NC(=O)CO5)[nH]c(=O)c3c21 (stereo not shown) [2/224]
16 | < 100 | 250 to 20000 | – | CC(C)CNC(=O)C1Cc2sc3nc(C(=O)NCc4ccc5c(c4)NC(=O)CO5)[nH]c(=O)c3c2C1 (stereo not shown) [2/231]
17 | – | 250 to 20000 | – | NC(=O)C1Cc2sc3nc(C(=O)NCc4ccc5c(c4)CN(c4c(N)c(=O)c4=O)CC5)[nH]c(=O)c3c2C1 (stereo not shown) [2/232]
18 | – | 250 to 20000 | – | CCOC(=O)CC1CCCc2sc3nc(C(=O)NCc4ccc5c(c4)NC(=O)CO5)[nH]c(=O)c3c21 (stereo not shown) [2/236]
19 | – | 250 to 20000 | – | NC(=O)CC1CCCc2sc3nc(C(=O)NCc4ccc5c(c4)NC(=O)CO5)[nH]c(=O)c3c21 (stereo not shown) [2/240]
20 | < 100 | 250 to 20000 | – | O=C1COc2ccc(CNC(=O)c3nc4ccc5c(c4c(=O)[nH]3)CCC5)cc2N1 [2/245]
21 | < 100 | – | < 250 | C#CCNC(=O)CC1CCCc2sc3nc(C(=O)NCc4ccc5c(c4)NC(=O)CO5)[nH]c(=O)c3c21 (stereo not shown) [2/251]
22 | < 100 | – | < 250 | NC(=O)CNC(=O)C1CCc2sc3nc(C(=O)NCc4ccc5c(c4)NC(=O)CO5)[nH]c(=O)c3c21 (stereo not shown) [2/255]
23 | < 100 | – | < 250 | NC(=O)C1CCCCc2sc3nc(C(=O)NCc4ccc5c(c4)NC(=O)CO5)[nH]c(=O)c3c21 (stereo not shown) [2/267]
24 | < 100 | – | 250 to 20000 | O=C(NCc1ccc(F)cc1)c1nc2sc3c(c2c(=O)[nH]1)CCC3 [2/290]
25 | 100 to 20000 | – | 250 to 20000 | O=C(NCc1cccc(F)c1)c1nc2sc3c(c2c(=O)[nH]1)CCC3 [2/292]
26 | < 100 | – | < 250 | Cc1cc(CNC(=O)c2nc3sc4c(c3c(=O)[nH]2)CCC4)ccc1F [2/313]
27 | < 100 | – | 250 to 20000 | COC(=O)c1cccc(CNC(=O)c2nc3sc4c(c3c(=O)[nH]2)CCC4)c1 [2/316]

Row | IC50 [1] [nM] | IC50 [2] [nM] | IC50 (activated MMP-8 enzyme) [nM] | SMILES
28 | 100 to 20000 | – | 250 to 20000 | Cc1cccc(CNC(=O)c2nc3sc4c(c3c(=O)[nH]2)CCC4)c1 [2/383]
29 | 100 to 20000 | – | 250 to 20000 | COc1ccc(CNC(=O)c2nc3sc4c(c3c(=O)[nH]2)CCC4)cc1 [2/384]
30 | < 100 | – | < 250 | Nc1c(NCc2cccc(CNC(=O)c3nc4sc5c(c4c(=O)[nH]3)CCC5)c2)c(=O)c1=O [2/413]
31 | < 100 | – | 250 to 20000 | Nc1c(NCc2cc(CNC(=O)c3nc4sc5c(c4c(=O)[nH]3)CCC5)ccc2F)c(=O)c1=O [2/417]
32 | 100 to 20000 | – | 250 to 20000 | O=C(NCc1ccc2c(c1)OCCO2)c1nc2sc3c(c2c(=O)[nH]1)CCC3 [2/428]
33 | 100 to 20000 | – | 250 to 20000 | O=C(NCc1ccc(F)c(Cl)c1)c1nc2sc3c(c2c(=O)[nH]1)CCC3 [2/433]
34 | < 100 | – | 250 to 20000 | O=C(NCc1cccc(N2CCSCC2)c1)c1nc2sc3c(c2c(=O)[nH]1)CCC3 [2/528]
35 | 100 to 20000 | – | 250 to 20000 | CS(=O)(=O)N1CCc2ccc(CNC(=O)c3nc4sc5c(c4c(=O)[nH]3)CCC5)cc2C1 [2/538]
36 | < 100 | – | < 250 | Nc1c(N2CCc3ccc(CNC(=O)c4nc5sc6c(c5c(=O)[nH]4)CC(C(=O)O)C6)cc3C2)c(=O)c1=O (stereo not shown) [4/14]
37 | < 100 | 250 to 20000 | < 250 | O=C1COc2ccc(CNC(=O)c3nc4sc5c(c4c(=O)[nH]3)CC(C(=O)O)C5)cc2N1 (stereo not shown) [4/15]
38 | < 100 | 250 to 20000 | < 250 | O=C(O)CNC(=O)C1CCc2sc3nc(C(=O)NCc4ccc5c(c4)NC(=O)CO5)[nH]c(=O)c3c21 (stereo not shown) [15/2]
39 | < 100 | 250 to 20000 | 250 to 20000 | CC1c2c(sc3nc(C(=O)NCc4ccc5c(c4)NC(=O)CO5)[nH]c(=O)c23)CS1(=O)=O (stereo not shown) [22/2]
40 | 100 to 20000 | – | 250 to 20000 | O=C1COc2ccc(CNC(=O)c3nc4cc5ccccc5cc4c(=O)[nH]3)cc2N1 [39/20]
41 | < 100 | < 250 | < 250 | CS(=O)(=O)N1Cc2sc3nc(C(=O)NCc4ccc5c(c4)NC(=O)CO5)[nH]c(=O)c3c2C1 [42/2]
42 | < 100 | – | < 250 | O=C1COc2ccc(CNC(=O)c3nc4sc5c(c4c(=O)[nH]3)CCC5)cc2N1 [Example 1]
43 | < 100 | – | < 250 | NC(=O)C1CCc2sc3nc(C(=O)NCc4ccc5c(c4)NC(=O)CO5)[nH]c(=O)c3c21 (stereo not shown) [Example 2/166]
44 | < 100 | 250 to 20000 | 250 to 20000 | O=C(O)CC1CCCc2sc3nc(C(=O)NCc4ccc5c(c4)NC(=O)CO5)[nH]c(=O)c3c21 (stereo not shown) [Example 3]
45 | < 100 | 250 to 20000 | < 250 | O=C(O)CNC(=O)CC1CCCc2sc3nc(C(=O)NCc4ccc5c(c4)NC(=O)CO5)[nH]c(=O)c3c21 (stereo not shown) [Example 15]
46 | < 100 | 250 to 20000 | < 250 | N#CC1CCc2sc3nc(C(=O)NCc4ccc5c(c4)NC(=O)CO5)[nH]c(=O)c3c21 (stereo not shown) [Example 19]
47 | < 100 | 250 to 20000 | < 250 | O=C1COc2ccc(CNC(=O)c3nc4sc5c(c4c(=O)[nH]3)CCCS(=O)(=O)C5)cc2N1 [Example 22/1]
48 | < 100 | 250 to 20000 | 250 to 20000 | O=C1COc2ccc(CNC(=O)c3nc4sc5c(c4c(=O)[nH]3)CCCS5(=O)=O)cc2N1 [Example 22]
49 | < 100 | 250 to 20000 | < 250 | O=C1COc2ccc(CNC(=O)c3nc4sc5c(c4c(=O)[nH]3)CCC[S+]([O-])C5)cc2N1 (stereo not shown) [Example 26]
50 | < 100 | < 250 | – | O=C1COc2ccc(CNC(=O)c3nc4ccc5c(c4c(=O)[nH]3)OCO5)cc2N1 [Example 28]
51 | < 100 | – | 250 to 20000 | O=C1COc2ccc(CNC(=O)c3nc4sc5c(c4c(=O)[nH]3)CNC5)cc2N1 [Example 41]
52 | – | 250 to 20000 | 250 to 20000 | O=C1COc2ccc(CNC(=O)c3nc4sc5c(c4c(=O)[nH]3)CN(C(=O)CC(F)(F)F)C5)cc2N1 [Example 42/1]
53 | < 100 | < 250 | – | O=C1COc2ccc(CNC(=O)c3nc4sc5c(c4c(=O)[nH]3)CN(c3ncccn3)C5)cc2N1 [Example 43]
